Legend:
Assay type in all cases: in vivo, mice
[1] = Mortality and glycemia following PDL plus alloxan
Description: (§1) Six- to ten-week old C57/B6 or ICR (Institute of Cancer Research) mice (Harlan Sprague Dawley, Inc.; Placentia, Calif., USA) were injected intravenously with Alloxan (Sigma Aldrich, St. Louis, Mo., USA) at 90 mg/kg. PDL was conducted essentially as described with the following minor modifications. Approximately 50% of the pancreas (the head) remained proximal to the ligation. For the mice receiving PDL plus A, PDL was performed 30 minutes after alloxan injection. Only mice with a blood sugar greater than 500 mg/dl (checked 48 hours after alloxan injection) were selected for experiments. Those mice were injected subcutaneously once daily with insulin glargine (Sanofi-Aventis, Paris, France).
The initial insulin dose was 1 unit per mouse (around […] in weight). If hyperglycemia was not controlled at that dose, it was raised gradually until diabetes was controlled. Even with careful management of diabetes, the mortality following PDL plus alloxan was high, around 50%.

[2] = system: β-cells; assay: β-cell elimination and β-cell mass after alloxan injection, with or without PDL
Description: as §1
Quantitation of β-cell Mass—β-cell mass was calculated as the relative β-cell area multiplied by pancreatic weight. For the quantitative analysis of insulin (+) cell area, we studied sections spaced 100 lm apart from each other from the tail of the pancreas per mouse. These sections were incubated with antisera to insulin (1:200, rabbit, Santa Cruz Biotechnology, Santa Cruz, Calif., USA) and the bound antibody was visualized by DAB (3,30-Diaminobenzidine) (Vector Laboratories, Burlingame, Calif., USA). The nuclei were stained by Hematoxylin (Surgipath, Richmond, Ill., USA). All slides were scanned and analyzed by using the Aperio ScanScope XT system (version 10, Aperio Technologies, Vista, Calif.).

[3] = system: insulin-positive and glucagon-positive cells of the pancreas; assay: Immunohistochemical marker quantification in pancreas after PDL plus alloxan
Description: as §1
Immunohistochemical Staining—Tissue was fixed in 4% formaldehyde for 6 hours at 4° C., washed in PBS (Phosphate buffered saline), followed by overnight in 30% sucrose at 4° C., then embedded in OCT (Optimal Cutting Temperature) compound and frozen at […]. Cryosections of 5 um thickness were incubated with antisera specific for insulin (1/200, guinea pig, USBIO, Swampscott, Mass., USA), insulin (1/200, rabbit, Santa Cruz Biotechnology, Santa Cruz, Calif., USA), glucagon (1/2,000, mouse, Sigma-Aldrich, St. Louis, Mo., USA), glucagon (1/50, rabbit, Abcam, Cambridge, Mass., USA), cytokeratin (Wide Spectrum Screening; 1/500, rabbit, DakoCytomation, Glostrup, Denmark), somatostatin (1/200, goat, Santa Cruz Biotechnology, Santa Cruz, Calif., USA), KI67 (1/50, mouse, BD Pharmingen, San Diego, Calif., USA), MafA (1/100, rabbit, Bethyl Laboratories, Montgomery, Tex., USA), MafB (1/100, rabbit, Bethyl Laboratories, Montgomery, Tex., USA), PDX1 (1/2,000, goat, Abcam, Cambridge, Mass., USA), Nkx6.1 (1/1,000, mouse, Beta Cell Biology Consortium, Nashville, Tenn., USA), 5-bromodeoxyuridine (BrdU; mouse, GE healthcare, Piscataway, N.J., USA), and C-peptide (1/100, rabbit, Cell Signaling, Danvers, Mass., USA). Secondary antibodies for detection of guinea pig, rabbit, goat, or mouse antibodies were labeled with: Alexa Fluor 488 (Invitrogen, Carlsbad, Calif., USA), Rhodamine Red (Jackson ImmunoResearch Laboratories, West Grove, Pa., USA), Cy5 (Jackson ImmunoResearch Laboratories, West Grove, Pa., USA). Nuclei were visualized with DAPI (40,6-diamidino-2-phenylindole) (Sigma Aldrich, St. Louis, Mo., USA).
Image and Statistical Analysis—All images were acquired by confocal scanning microscopy (Radiance 2100/AGR-3Q BioRad Multi-photon Laser Point Scanning Confocal Microscope). Images were processed with Image J software. The colocalization patterns in FIG. 4, FIGS. 18 and 19 were determined by the colocalization threshold algorithm in WCIF image J. Confocal z stacks were captured at 0.5 lm increments. Three dimensional reconstructions and measurements were performed by using Volocity software (version 5.3). Statistical significance of cell-specific changes in controls versus experimental groups was calculated by an unpaired Student's t-test. We considered p-values below 0.05 as statistically significant. For all statistical analysis, Graphpad Prism 5 was used. All results are expressed as mean±SD.

[4] = 14 days following alloxan plus PDL
[5] = seven days following PDL plus alloxan

## O=C1NC(=O)C(=O)C(=O)N1 [alloxan]
[1]; PDL plus alloxan
  normoglycemia: did not achieve normoglycemia
[1]; following PDL plus alloxan, with insulin glargine management of diabetes
  mortality: around 50%
[2]; after alloxan
  residual β-cells, of pre-existing β-cells: less than 1%
[2]; alloxan injection, by 3 days after injection
  pre-existing β-cells eliminated: 99%
[2]; alloxan treatment alone, two weeks later
  β-cell regeneration: no evidence of β-cell regeneration
[2]; alloxan, between 3 and 14 days after injection
  change in β-cell mass: no change in the β-cell mass
[2]; following PDL plus alloxan
  β-cells eliminated: greater than 99%
[3]; 1 week following PDL plus alloxan
  insulin-positive cells coexpressing glucagon: 58%
[3]; 3 days following alloxan plus PDL
  frequency of replicating insulin-positive cells (Ki67): 0.98%
[3]; 7 days following PDL plus alloxan
  replication rate of glucagon-positive cells: 5%
[3]; 14 days following PDL plus alloxan
  insulin-positive cells coexpressing glucagon: 21%
[3]; [4]
  β-cells expressing MafA: 63%
  β-cells expressing MafB: 22%
[3]; PDL plus alloxan, within 1 week
  α-cells expressing PDX1: 11%
[3]; day 7 following PDL plus alloxan
  frequency of replicating insulin-positive cells (Ki67): 6%
[3]; day 14 following PDL plus alloxan
  frequency of replicating insulin-positive cells (Ki67): decreased to basal levels
[3]; [5]
  insulin positive cells expressing MafA: 26%
  insulin positive cells expressing MafB: 64%

Source: US20120270890A1, “Methods of Pancreatic Beta Cell Regeneration” (priority 2011, published 2012)
